This is an account of results in patent US20230144186A1 (The Trustees of the University of Pennsylvania, priority 2020, published 2023).

Read-outs that look alike come from different tables or passages of the source.

One series has as its system nitric oxide (NO). Put plainly: NO production after nasal instillation in ferrets (nasal wash). Format: in vivo, ferret.
Series [1] relates to SARS-CoV-2 (UPenn/Philadelphia strain). The series is described as follows: Human sinonasal ALI infection with SARS-CoV-2, nucleocapsid staining and quantitative fluorescence imaging. Conditions: 1 mg/mL quinine sulfate, 48 hrs; average of two measurements.
The test system of another series is airway inflammation. The following applies: murine model; cited from earlier work.
Series [2] deals with human ciliated sinonasal air-liquid-interface (ALI) cells.
Series [3] relates to human H1N1 influenza A strain PR8. It counts as cell-based. The following applies: 0.1% quinine in 0.9% sodium chloride from 1 h post infection, daily, 72 hrs.

As for `C=C[C@H]1C[N@@]2CC[C@H]1C[C@H]2[C@H](O)c1ccnc2ccc(OC)cc12` [quinine], the “NO in nasal wash” value was 6.64 ng/mL in the series on nitric oxide (NO) (5 min after 200 μL of 1 mg/mL solution intranasal), 6.42 ng/mL in the series on nitric oxide (NO) (10 min after 200 μL of 1 mg/mL solution intranasal) and 6.52 ng/mL in the series on nitric oxide (NO) (15 min after 200 μL of 1 mg/mL solution intranasal). The “Quinine Rx (% infected)” value in series [1] stood at 2.32%. For the same compound, the “airway inflammation (BAL, histology, PFTs)” value in the series on airway inflammation is given as “reduce airway inflammation”. Also, in series [2], the cell viability result is “remained viable and visually healthy”. Further, the “transcripts for both the NP and IAV-M genes” value is given as “lesser relative reduction” in series [3] (subject A cells, MOI of 1) and “marked relative reduction” in series [3] (subject B (more mature) ALI culture).
